Here are results for 30 compounds from patent US20260174739A1 (priority 2022, published 2026).

The target of series [1] is human DAT (Homo sapiens, UniProt Q01959). Description: DAT transporter inhibitory activity test (neurotransmitter transporter uptake assay kit). The conditions noted are these: DAT stably transfected HEK cells; read-out: DAT (IC50). It is filed as cell-based. As to the method: Transporter inhibition of human DAT and NET expressed in HEK-293 cells was assessed using a neurotransmitter transporter uptake assay kit. The assay was performed as described in the kit instructions, using centanafadine as a positive control. The specific procedures were as follows:
DAT stably transfected culture: The DAT-HEK cell line was cultured in DMEM medium containing 10% fetal bovine serum and 0.2 mg/mL hygromycin B at 37° C. with 5% carbon dioxide.
DAT stably transfected cell passage: the old medium was removed, and the cells were washed once with PBS; 1 mL of TrypLE™ Express solution was then added, and the cells were incubated at 37° C. for about 2 min. When the cells were detached from the bottom of the dish, about 5 mL of complete medium pre-heated at 37° C. was added. The cell suspension was gently pipetted to separate the aggregated cells. The cell suspension was transferred to a sterile centrifuge tube and centrifuged at 1000 rpm for 5 min. In order to maintain the physiological activity of the cells, the experimental cell confluence was controlled at about 80%.
• a) After overnight transfection of NET cells, the cells were digested with trypsin, resuspended with DMEM+10% Dialyzed FBS medium, seeded into a 384-well plate at 20000 cells/well, and incubated overnight. […] After centrifuging, the plate was incubated at 37° C. for 30 min. • e) A detection reagent was prepared using 1×HBSS, and 16 μL of the detection reagent was added to each well. […] Curve fitting and IC50 calculation were performed using GraphPad Prism software nonlinear regression method.

Series [2] can be described thus: In vivo metabolism (pharmacokinetic) experiment in mice. Also noted: species or system male ICR mice. The conditions noted are these: mouse, male ICR mice; for AUC(0-inf) / Cmax / half-life: oral 10 mg/kg, plasma; for AUC(0-inf): read-out: AUC0-inf(po); for Cmax: read-out: Cmax (po); for half-life: read-out: T1/2 (po) (converted). As to the method: Animal: male ICR mice. The animals were randomly assigned to treatment groups and fasted for 12 h prior to dosing.
Drug: the compound of the present disclosure was dissolved in a vehicle (5% DMSO+5% Solutol HS15+90% saline). For intravenous (iv) administration, the dose was 2.5 mg/kg with a dosing volume of 5 mL/kg; for oral (po) administration, the dose was 10 mg/kg with a dosing volume of 10 mL/kg body weight. Sample collection and bioanalysis: blood was collected from the orbit of the mice and added into EP tubes containing heparin sodium at 0.083, 0.25, 0.5, 1, 2, 4, 6, and 8 h (n=3 for each time point). Immediately after blood collection, the mice were euthanized by cervical dislocation, and mouse brains were collected at the corresponding time points. All samples were promptly collected, snap-frozen, and stored at −70° C. for later use. Plasma samples were obtained by centrifugation of whole blood. 10 μL of plasma was mixed with 190 μL of internal standard solution (20 ng/ml in acetonitrile containing 0.1% formic acid). After mixing, the samples were centrifuged at 13000 rpm for 10 min, and 120 μL of the supernatant was separately collected. Depending on the sensitivity of the compound, 0.5-10 μL of the supernatant was taken for drug analysis using the appropriate liquid chromatography-tandem mass spectrometry (LC-MS/MS). Each analyte was calibrated and identified using standards. According to brain tissue: the extract (50% acetonitrile/water) at a ratio of 1 g:8 mL was homogenized for 2 min using five 3 mm magnetic beads in an OMNI Bead Ruptor 24 Elite homogenizer at 3.2 m/s and centrifuged at 4° C. and 3000 g for 3 min. 50 μL of the supernatant was mixed with 200 μL of internal standard solution (20 ng/mL in 80% acetonitrile/water). After mixing, the samples were centrifuged at 13,000 rpm for 10 min, and 120 μL of the supernatant was separately collected. Depending on the sensitivity of the compound, 0.5-10 μL of the supernatant was taken for drug analysis using the appropriate LC-MS/MS method. Each analyte was calibrated and identified using standards.
Data analysis: drug concentrations below the lower limit of quantification (LLOQ) were considered zero. Pharmacokinetic parameters were analyzed using PK Solver with a non-compartmental, bolus injection or extravascular input analysis models. Data points below the LLOQ were excluded to improve the efficacy of t1/2 calculation.

For series [3], the target named is human SERT (Homo sapiens, UniProt P31645). The experiment in a line: Inhibitory activity assay against 5-HT transporter (neurotransmitter transporter uptake assay kit). The note with it: HEK-293 cells overexpressing human SERT; read-out: 5-HTT (IC50). The class given is cell-based. As to the method:
In HEK-293 cells overexpressing human SERT, the transporter inhibitory effect of the test compound on human SERT was assayed using a Neurotransmitter transporter uptake assay kit (Molecular devices).

Counter-ions that a name gives are not always drawn. Like-named read-outs stand apart in the source and are kept apart here.

Chain of human SERT (P31645 whole entry): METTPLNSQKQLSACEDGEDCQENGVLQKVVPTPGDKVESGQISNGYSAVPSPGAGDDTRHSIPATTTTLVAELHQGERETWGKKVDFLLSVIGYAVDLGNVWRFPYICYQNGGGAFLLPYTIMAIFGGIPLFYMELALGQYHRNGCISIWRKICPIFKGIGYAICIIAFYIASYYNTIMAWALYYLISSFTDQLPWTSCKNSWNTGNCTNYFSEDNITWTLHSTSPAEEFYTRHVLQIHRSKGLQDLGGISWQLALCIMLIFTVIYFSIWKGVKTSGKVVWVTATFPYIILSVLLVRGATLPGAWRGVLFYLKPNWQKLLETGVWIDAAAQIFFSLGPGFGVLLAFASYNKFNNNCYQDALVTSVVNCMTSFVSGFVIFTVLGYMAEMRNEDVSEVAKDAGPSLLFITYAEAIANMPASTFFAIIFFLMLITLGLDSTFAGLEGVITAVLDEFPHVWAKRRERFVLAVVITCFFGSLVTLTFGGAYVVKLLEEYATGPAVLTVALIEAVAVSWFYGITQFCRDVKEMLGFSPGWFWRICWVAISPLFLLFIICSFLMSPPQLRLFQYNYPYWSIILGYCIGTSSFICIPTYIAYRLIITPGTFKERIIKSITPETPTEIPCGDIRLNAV
Chain of human DAT (Q01959 whole entry): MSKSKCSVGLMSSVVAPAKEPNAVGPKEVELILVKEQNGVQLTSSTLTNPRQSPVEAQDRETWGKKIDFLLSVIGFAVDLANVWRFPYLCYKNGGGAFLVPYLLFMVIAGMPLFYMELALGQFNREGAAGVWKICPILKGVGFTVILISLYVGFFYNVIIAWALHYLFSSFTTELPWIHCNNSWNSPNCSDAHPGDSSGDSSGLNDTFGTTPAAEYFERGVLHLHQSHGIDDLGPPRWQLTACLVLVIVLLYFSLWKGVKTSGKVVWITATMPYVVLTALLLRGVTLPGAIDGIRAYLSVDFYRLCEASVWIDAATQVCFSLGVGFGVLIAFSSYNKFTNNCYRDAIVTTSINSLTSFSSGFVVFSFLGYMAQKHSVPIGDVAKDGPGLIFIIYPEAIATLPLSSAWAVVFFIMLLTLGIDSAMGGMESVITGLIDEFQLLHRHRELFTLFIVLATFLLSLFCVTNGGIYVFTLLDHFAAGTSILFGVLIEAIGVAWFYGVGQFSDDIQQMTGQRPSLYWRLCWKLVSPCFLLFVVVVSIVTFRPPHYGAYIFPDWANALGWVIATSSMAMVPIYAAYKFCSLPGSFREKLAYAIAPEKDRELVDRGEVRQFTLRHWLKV

For `CNC1(c2cccnc2)CCc2nc(N)sc2C1` (racemic) [rac-A99, N^6-methyl-6-(pyridin-3-yl)-4,5,6,7-tetrahydrobenzothiazole-2,6-diamine], the IC50 in series [1] was found to be 11 µM. Turning to `CNC1(c2ccc(Cl)cc2)CCc2nc(N)sc2C1` (racemic) [rac-A332, 6-(4-chlorophenyl)-N^6-methyl-4,5,6,7-tetrahydrobenzo[d]thiazole-2,6-diamine], in series [1], the IC50 is 3.2 µM.

Regarding `CNC1(c2ccccc2)CCc2[nH]ncc2C1` (racemic) [rac-A69, N-methyl-5-phenyl-4,5,6,7-tetrahydro-1H-indazol-5-amine], the bioavailability in series [2] (oral 10 mg/kg vs iv 2.5 mg/kg, read-out: F (%)) was 132%. Further, in series [2], the AUC(0-inf) amounted to 602 ng·h/mL, the Cmax was 456 ng/mL and the half-life is 41.4 min. `NC1(c2ccc3ccccc3c2)CCc2sccc2C1` (racemic) [rac-A247, 5-(naphthalen-2-yl)-4,5,6,7-tetrahydrobenzo[b]thiophen-5-amine]: the IC50 in series [3] came out at 4.5 µM; in series [1] it was 1.5 µM.

`Nc1nc2c(s1)CC(NCC1CC1)(c1ccccc1F)CC2` (racemic) [rac-A374, N^6-(cyclopropylmethyl)-6-(2-fluorophenyl)-4,5,6,7-tetrahydrobenzo[d]thiazole-2,6-diamine]: in series [1], the IC50 was determined as 3.8 µM.

As to `CCOc1cccc([C@]2(N)CCc3nc(N)sc3C2)c1` [S-A228, (S)-6-(3-ethoxyphenyl)-4,5,6,7-tetrahydrobenzo[d]thiazole-2,6-diamine], in series [1], the IC50 turned out to be 1.8 µM.

`O=C(O)c1cc2c(s1)CCC(c1ccccc1)(N1CCOCC1)C2` (racemic) [rac-A46, 5-morpholino-5-phenyl-4,5,6,7-tetrahydrobenzothiophen-2-carboxylic acid]: in series [2] (male, ICR, po, 10 mg/kg), the AUC(0-inf) was 3900 ng·h/mL, the Cmax was determined as 2710 ng/mL and the half-life is 156 min.

Regarding `c1ccc(C2(N3CCCC3)CCc3nnsc3C2)cc1` (racemic) [rac-A54, 6-phenyl-6-(pyrrolidin-1-yl)-4,5,6,7-tetrahydrobenzothiadiazole], the IC50 in series [1] amounted to 2.8 µM.

In the case of `Nc1nc2c(s1)C[C@@](c1ccccc1)(N1CCCC1)CC2` [S-A50], in series [1], the IC50 was determined as 2.4 µM. On the same count and under the same terms, the same measure for `c1ccc(C2(N3CCOCC3)CCc3sccc3C2)cc1` (racemic) [rac-A47, 4-(5-phenyl-4,5,6,7-tetrahydrobenzothiophen-5-yl)morpholine]: 1.3 µM; for `Nc1nc2c(s1)CC(N)(c1ccc3c(c1)OCO3)CC2` (racemic) [rac-A303, 6-(benzo[d][1,3]dioxol-5-yl)-4,5,6,7-tetrahydrobenzo[d]thiazole-2,6-diamine]: 8.2 µM.

Turning to `CN(C)C1(c2ccccc2F)CCc2nc(N)sc2C1` (racemic) [rac-A234, 6-(2-fluorophenyl)-N^6,N^6-dimethyl-4,5,6,7-tetrahydrobenzo[d]thiazole-2,6-diamine], the values for the IC50 in series [3] and in series [1] were 0.3 µM and 6.3 µM, respectively. As for `COc1cc(C2(N)CCc3nc(N)sc3C2)ccn1` (racemic) [rac-A309, 6-(2-methoxypyridin-4-yl)-4,5,6,7-tetrahydrobenzo[d]thiazole-2,6-diamine], the IC50 in series [1] was determined as 14 µM. Take `CNCC1(c2ccccc2)CCc2nc(N)sc2C1` (racemic) [rac-A252, 6-((methylamino)methyl)-6-phenyl-4,5,6,7-tetrahydrobenzo[d]thiazol-2-amine]: the IC50 in series [1] came to 9.5 µM. Consider `N[C@@]1(c2ccccc2)CCc2ncsc2C1` [S-A14], for which the half-inhibitory concentration (IC50) in series [1] was 11 µM.

For the compound `NC1(c2cccc(O)c2)CCc2nc(NCC(F)(F)F)sc2C1` (racemic) [rac-A396, 3-(6-amino-2-((2,2,2-trifluoroethyl)amino)-4,5,6,7-tetrahydrobenzo[d]thiazol-6-yl)phenol], the IC50 in series [1] is 18 µM. Regarding `COc1cccc(C2(N(C)C)CCc3nc(N)sc3C2)c1` (racemic) [rac-A283, 6-(3-methoxyphenyl)-N^6,N^6-dimethyl-4,5,6,7-tetrahydrobenzo[d]thiazole-2,6-diamine], in series [1], the IC50 came out at 0.45 µM. Consider `Clc1cccc(C2(N3CCCCC3)CCc3nnsc3C2)c1` (racemic) [rac-A58, 6-(3-chlorophenyl)-6-(piperidin-1-yl)-4,5,6,7-tetrahydrobenzothiadiazole], for which the IC50 in series [1] worked out at 2.7 µM.

`CN(C)C1(c2cccc(O)c2)CCc2nc(N)sc2C1` (racemic) [rac-A305, 3-(2-amino-6-dimethylamino-4,5,6,7-tetrahydrobenzo[d]thiazol-6-yl)phenol]: the IC50 in series [1] worked out at 0.24 µM. Turning to `COc1cccc(C2(N)CCc3nc(OC)sc3C2)c1` (racemic) [rac-A317, 2-methoxy-6-(3-methoxyphenyl)-4,5,6,7-tetrahydrobenzo[d]thiazol-6-amine], the IC50 in series [3] worked out at 5.1 µM. As for `COc1cccc(C2(N)CCc3nc(C(C)=O)sc3C2)c1` (racemic) [rac-A314, 1-(6-amino-6-(3-methoxyphenyl)-4,5,6,7-tetrahydrobenzo[d]thiazol-2-yl)ethan-1-one hydrochloride], the IC50 in series [3] was found to be 5.6 µM. For `COc1cccc(C2(N)CCc3nc(N)sc3C2)n1` (racemic) [rac-A310, 6-(6-methoxypyridin-2-yl)-4,5,6,7-tetrahydrobenzo[d]thiazole-2,6-diamine], the IC50 in series [3] came to 16 µM. Regarding `CN(C)C1(c2ccccc2)CCc2ncsc2C1` (racemic) [rac-A233, N,N-dimethyl-6-phenyl-4,5,6,7-tetrahydrobenzo[d]thiazol-6-amine], the IC50 in series [3] is 0.3 µM. Take `CNC1(c2ccc(F)cc2)CCc2ncsc2C1` (racemic) [rac-A294, 6-(4-fluorophenyl)-N-methyl-4,5,6,7-tetrahydrobenzo[d]thiazol-6-amine]: the IC50 in series [3] came out at 1.1 µM. As for `CC(C)Oc1cccc(C2(N)CCc3nc(N)sc3C2)c1` (racemic) [rac-A321, 6-(3-isopropoxyphenyl)-4,5,6,7-tetrahydrobenzo[d]thiazole-2,6-diamine], in series [1], the IC50 is 5.9 µM. As for `CCOc1cccc([C@@]2(N)CCc3nc(N)sc3C2)c1` [R-A228, (R)-6-(3-ethoxyphenyl)-4,5,6,7-tetrahydrobenzo[d]thiazole-2,6-diamine], the IC50 in series [3] was determined as 2.9 µM. Turning to `CCOc1cccc(C2(NC)CCc3nc(N)sc3C2)c1` (racemic) [rac-A342, 6-(3-ethoxyphenyl)-N^6-methyl-4,5,6,7-tetrahydrobenzo[d]thiazole-2,6-diamine], the IC50 in series [1] turned out to be 0.35 µM. For `COc1cccc(C2(N)CCc3c(sc(=O)n3C)C2)c1` (racemic) [rac-A299, 6-amino-6-(3-methoxyphenyl)-3-methyl-4,5,6,7-tetrahydrobenzo[d]thiazol-2-one hydrochloride], in series [3], the IC50 amounted to 0.52 µM. In the case of `COc1cccc(C2(N)CCc3nc(C4CC4)sc3C2)c1` (racemic) [rac-A316, 2-cyclopropyl-6-(3-methoxyphenyl)-4,5,6,7-tetrahydrobenzo[d]thiazol-6-amine hydrochloride], the IC50 in series [3] came to 4 µM.

For the compound `Nc1nc2c(s1)C[C@](N)(c1ccccc1)CC2` [S-A1], the IC50 in series [1] worked out at 6.5 µM.

As usually defined, the IC50 is the midpoint of a concentration-inhibition curve. The Cmax is the highest concentration seen after dosing.
